The results in this text go back to patent US10457654B2 (GENENTECH, INC., priority 2017, dated 2019).

Where a name gives a salt, the structure may show the parent alone.

Assay [1] deals with T1, hNav1.7 (Homo sapiens (Human), UniProt Q15858). The experiment in a line: Tritiated compound binding to membranes from cells expressing hNav1.7 and the β1 subunit, modified protocol (LBA, Ex. 243B). Particulars: 300 pM [3H]compound, room temperature, read-out: Nav1.7 LBA (Ex. 243B) IC50.
Target sequence in this assay (Q15858 whole entry, looked up): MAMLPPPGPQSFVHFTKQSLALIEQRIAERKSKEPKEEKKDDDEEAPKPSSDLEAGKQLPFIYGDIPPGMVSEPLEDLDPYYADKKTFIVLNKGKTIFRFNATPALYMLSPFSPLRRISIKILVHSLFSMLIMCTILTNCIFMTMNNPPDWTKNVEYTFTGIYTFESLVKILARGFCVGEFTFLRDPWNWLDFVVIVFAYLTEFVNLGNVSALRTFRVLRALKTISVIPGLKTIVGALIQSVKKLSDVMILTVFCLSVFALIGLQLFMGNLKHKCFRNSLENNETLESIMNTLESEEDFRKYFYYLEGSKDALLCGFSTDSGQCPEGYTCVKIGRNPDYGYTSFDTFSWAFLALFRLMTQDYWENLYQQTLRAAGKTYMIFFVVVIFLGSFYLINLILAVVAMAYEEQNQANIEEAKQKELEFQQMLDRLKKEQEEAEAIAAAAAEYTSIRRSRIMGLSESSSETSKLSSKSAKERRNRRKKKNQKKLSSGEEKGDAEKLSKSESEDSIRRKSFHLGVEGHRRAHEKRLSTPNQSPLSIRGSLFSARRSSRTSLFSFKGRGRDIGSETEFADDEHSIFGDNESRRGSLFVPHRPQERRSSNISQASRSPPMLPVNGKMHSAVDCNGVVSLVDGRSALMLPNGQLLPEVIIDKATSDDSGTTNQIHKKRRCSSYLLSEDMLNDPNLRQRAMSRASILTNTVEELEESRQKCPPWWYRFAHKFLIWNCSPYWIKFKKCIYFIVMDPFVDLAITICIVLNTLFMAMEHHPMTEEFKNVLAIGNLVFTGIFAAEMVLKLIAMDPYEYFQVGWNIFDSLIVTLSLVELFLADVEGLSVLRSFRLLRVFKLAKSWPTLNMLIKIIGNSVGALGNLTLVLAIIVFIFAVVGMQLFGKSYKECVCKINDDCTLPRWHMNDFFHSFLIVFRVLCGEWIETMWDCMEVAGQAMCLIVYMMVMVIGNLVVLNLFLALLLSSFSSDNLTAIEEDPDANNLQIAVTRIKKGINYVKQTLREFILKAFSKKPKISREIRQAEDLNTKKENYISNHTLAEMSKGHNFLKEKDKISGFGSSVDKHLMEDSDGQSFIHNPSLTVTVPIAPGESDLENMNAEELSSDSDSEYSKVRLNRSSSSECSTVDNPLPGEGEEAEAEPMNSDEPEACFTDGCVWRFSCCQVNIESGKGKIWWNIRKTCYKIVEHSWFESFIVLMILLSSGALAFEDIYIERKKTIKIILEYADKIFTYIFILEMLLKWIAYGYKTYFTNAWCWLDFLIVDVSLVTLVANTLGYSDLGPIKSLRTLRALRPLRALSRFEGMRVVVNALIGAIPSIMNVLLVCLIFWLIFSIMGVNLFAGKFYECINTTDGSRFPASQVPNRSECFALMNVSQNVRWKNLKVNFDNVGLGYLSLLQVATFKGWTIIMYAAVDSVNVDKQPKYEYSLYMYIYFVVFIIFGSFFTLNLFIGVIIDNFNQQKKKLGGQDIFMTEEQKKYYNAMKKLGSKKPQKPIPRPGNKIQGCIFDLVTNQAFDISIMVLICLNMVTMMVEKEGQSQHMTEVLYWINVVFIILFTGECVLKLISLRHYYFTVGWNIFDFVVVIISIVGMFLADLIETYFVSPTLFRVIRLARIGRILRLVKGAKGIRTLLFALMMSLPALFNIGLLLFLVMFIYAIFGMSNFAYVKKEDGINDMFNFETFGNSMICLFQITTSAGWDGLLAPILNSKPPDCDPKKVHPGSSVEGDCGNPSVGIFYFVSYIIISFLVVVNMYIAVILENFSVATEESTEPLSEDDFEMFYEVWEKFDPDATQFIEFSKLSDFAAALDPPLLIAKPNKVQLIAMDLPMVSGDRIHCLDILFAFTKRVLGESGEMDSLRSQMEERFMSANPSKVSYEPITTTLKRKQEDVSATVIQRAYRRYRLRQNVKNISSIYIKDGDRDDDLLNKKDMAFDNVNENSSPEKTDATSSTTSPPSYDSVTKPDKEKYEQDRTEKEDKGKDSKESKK
Target sequence in this assay (Q07699 whole entry partner, looked up): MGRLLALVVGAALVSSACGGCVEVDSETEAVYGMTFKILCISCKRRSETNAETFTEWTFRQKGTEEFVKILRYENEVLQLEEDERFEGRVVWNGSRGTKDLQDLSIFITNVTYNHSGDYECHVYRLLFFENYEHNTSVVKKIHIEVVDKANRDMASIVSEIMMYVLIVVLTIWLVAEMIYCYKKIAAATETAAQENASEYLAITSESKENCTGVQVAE
Assay [2] addresses T1, hNav1.7. The assay is described as follows: Patch voltage clamp electrophysiology assay (EP), Syncropatch 384PE, CHO cells expressing Nav1.7. The assay is classed as cell-based. The following applies: holding potential -50 mV; […] compound incubation; read-out: EP_SP hNav1.7 (Ex. 243B) IC50. How it is done:
Electrophysiological Assay (EP) (In Vitro Assay)
The following voltage clamp electrophysiology studies were performed on representative compounds using cells heterologously expressing Nav1.7 or Nav1.5 channels. cDNAs for Nav1.7 (NM_002977) and Nav1.5 (AC137587) were stably expressed in Chinese Hamstr Ovary (CHO) cells and CHL (Chinese Hamster Lung) cells respectively. […] Internal solution consists of (in mM): 110 […], 10 […], 20 EGTA, and 10 Hepes (pH adjusted to 7.2); and external solution contains (in mM): 60 NMDG, 80 NaCl, 4 KCl, 1 MgCl2, 2 CaCl2, 2 D-Glucose monohydrate, 10 Hepes (pH adjusted to 7.4 with NaOH).
The chip is moved into the measuring head and the instrument primes the chip with external and internal solutions. […] cells are added to the chip from a cell hotel, and a negative pressure of −50 mBar is applied to form a seal. Following treatment with seal enhancer solution and wash-off with external solution, negative pressure of −250 mbar is applied for 1 second to achieve the whole-cell configuration, followed by three washing steps in external solution. 20 μl of compounds is added to 40 μl in each well (1:3 dilution of compounds), and after mixing, 20 μl is removed so the volume is retained at 40 μl.
For voltage protocol, an holding potential of −50 mV is applied during the whole experiment. A depolarizing step is applied to −10 mV for 10 ms, followed by a hyperpolarization step to −150 mV for 20 ms to allow channel recovery from inactivation. A second depolarizing step is applied from −150 mV to −10 mV for 10 ms, where currents were measured to derive blocking effects of compounds. Inhibition is determined based on 7.5 min of compound incubation.
Target sequence in this assay (Q15858 other isoform, or with tags, fused parts or gaps): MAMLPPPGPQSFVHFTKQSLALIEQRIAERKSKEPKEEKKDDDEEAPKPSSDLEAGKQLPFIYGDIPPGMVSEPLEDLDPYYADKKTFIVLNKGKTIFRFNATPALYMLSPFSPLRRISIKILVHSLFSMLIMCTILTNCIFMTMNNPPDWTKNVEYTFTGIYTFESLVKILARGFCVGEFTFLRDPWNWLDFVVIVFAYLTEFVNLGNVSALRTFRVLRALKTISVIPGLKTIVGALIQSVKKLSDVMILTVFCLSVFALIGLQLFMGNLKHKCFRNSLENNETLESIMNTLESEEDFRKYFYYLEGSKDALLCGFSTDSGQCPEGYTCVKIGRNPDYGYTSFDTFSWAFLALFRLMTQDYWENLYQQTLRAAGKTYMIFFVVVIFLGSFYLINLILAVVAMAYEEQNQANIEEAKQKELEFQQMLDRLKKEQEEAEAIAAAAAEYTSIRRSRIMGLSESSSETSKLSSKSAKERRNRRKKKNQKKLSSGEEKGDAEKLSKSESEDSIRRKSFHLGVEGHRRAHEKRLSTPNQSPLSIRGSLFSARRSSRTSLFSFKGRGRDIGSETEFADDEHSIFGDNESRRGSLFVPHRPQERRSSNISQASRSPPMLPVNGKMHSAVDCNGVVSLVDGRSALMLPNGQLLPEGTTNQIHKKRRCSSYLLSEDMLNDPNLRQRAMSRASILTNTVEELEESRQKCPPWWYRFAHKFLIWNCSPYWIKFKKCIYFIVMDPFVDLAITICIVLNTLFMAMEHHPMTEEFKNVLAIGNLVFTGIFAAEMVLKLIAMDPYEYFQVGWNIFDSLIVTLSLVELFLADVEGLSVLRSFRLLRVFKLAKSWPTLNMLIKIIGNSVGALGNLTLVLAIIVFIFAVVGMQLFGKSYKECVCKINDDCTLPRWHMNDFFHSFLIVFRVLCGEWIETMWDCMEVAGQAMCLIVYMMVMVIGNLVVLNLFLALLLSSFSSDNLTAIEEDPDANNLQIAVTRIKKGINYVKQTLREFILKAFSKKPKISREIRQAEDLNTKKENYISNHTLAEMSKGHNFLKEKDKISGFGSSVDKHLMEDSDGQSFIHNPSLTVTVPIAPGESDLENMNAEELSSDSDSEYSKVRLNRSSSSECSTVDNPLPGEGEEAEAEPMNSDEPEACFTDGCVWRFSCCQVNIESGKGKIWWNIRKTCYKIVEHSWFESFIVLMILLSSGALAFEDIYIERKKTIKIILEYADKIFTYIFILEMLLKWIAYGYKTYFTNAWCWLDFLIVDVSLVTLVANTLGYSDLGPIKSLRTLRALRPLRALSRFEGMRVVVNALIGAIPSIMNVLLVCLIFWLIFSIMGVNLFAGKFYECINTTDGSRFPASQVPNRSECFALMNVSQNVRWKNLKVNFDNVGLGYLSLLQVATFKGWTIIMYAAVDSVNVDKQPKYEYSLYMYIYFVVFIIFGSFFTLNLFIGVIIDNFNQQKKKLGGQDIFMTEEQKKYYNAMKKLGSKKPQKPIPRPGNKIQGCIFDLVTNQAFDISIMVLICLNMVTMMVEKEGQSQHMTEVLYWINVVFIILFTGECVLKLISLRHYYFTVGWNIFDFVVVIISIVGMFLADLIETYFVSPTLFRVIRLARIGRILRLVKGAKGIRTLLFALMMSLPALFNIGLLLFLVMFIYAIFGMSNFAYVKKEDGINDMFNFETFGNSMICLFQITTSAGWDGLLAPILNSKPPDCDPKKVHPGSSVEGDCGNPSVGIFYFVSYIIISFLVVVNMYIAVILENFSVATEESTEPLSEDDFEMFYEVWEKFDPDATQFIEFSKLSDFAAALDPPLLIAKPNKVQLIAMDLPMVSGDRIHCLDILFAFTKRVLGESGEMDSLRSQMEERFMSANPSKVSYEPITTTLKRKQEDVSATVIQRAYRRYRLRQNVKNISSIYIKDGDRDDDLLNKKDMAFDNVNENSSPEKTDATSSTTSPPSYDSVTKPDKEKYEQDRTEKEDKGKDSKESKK
A general note: In patch-clamp work, channel activity is measured electrically.

In general, IC50 refers to the concentration that inhibits the measured activity by half. Take `O=S(=O)(Nc1ccncn1)c1cc(Cl)c(N[C@H]2CCCC[C@@H]2N2CCC[C@@](F)(CO)C2)cc1F` [Example 222, 5-Chloro-2-fluoro-4-(((1S,2S)-2-((S)-3-fluoro-3-(hydroxymethyl)piperidin-1-yl)cyclohexyl)amino)-N-(pyrimidin-4-yl)benzenesulfonamide]: the IC50 stood at 464 nM on hNav1.7 [1] and 124 nM on hNav1.7 [2].
With `CN(C)[C@H]1CC(F)(F)CC[C@@H]1Nc1cc(F)c(S(=O)(=O)Nc2nccs2)cc1Cl` [Example 187, 5-chloro-4-(((1S,2S)-2-(dimethylamino)-4,4-difluorocyclohexyl)amino)-2-fluoro-N-(thiazol-2-yl)benzenesulfonamide formate], the IC50 on hNav1.7 [1] was determined as 776 nM; at hNav1.7 [2], 7.65 nM.
For the compound `CN1CC[C@@H](C(=O)N(C)[C@H]2CCCC[C@@H]2Nc2cc(F)c(S(=O)(=O)Nc3nccs3)cc2Cl)C1` [Example 200, (R)—N-((1S,2S)-2-((2-chloro-5-fluoro-4-(N-(thiazol-2-yl)sulfamoyl)phenyl)amino)cyclohexyl)-N,1-dimethylpyrrolidine-3-carboxamide], the IC50 on hNav1.7 [1] stood at 150 nM; at hNav1.7 [2], 16.7 nM.
On the same counts, the results for `O=S(=O)(Nc1nccs1)c1cc(Cl)c(N[C@H]2CCCC[C@@H]2N2CCC3(CC2)CC3)cc1F` [Example 154, 4-(((1S,2S)-2-(6-Azaspiro[2.5]octan-6-yl)cyclohexyl)amino)-5-chloro-2-fluoro-N-(thiazol-2-yl)benzenesulfonamide formate] are 1200 nM and 101 nM.
`O=S(=O)(Nc1nccs1)c1cc(Cl)c(N[C@H]2CCCC[C@@H]2N2CCCC2CO)cc1F` (stereo in doubt) [Example 133, 5-chloro-2-fluoro-4-(((1S,2S)-2-((S)-2-(hydroxymethyl)pyrrolidin-1-yl)cyclohexyl)amino)-N-(thiazol-2-yl)benzenesulfonamide]: the IC50 at hNav1.7 [1] stood at 20.8 nM; on hNav1.7 [2], 3.2 nM.
On to `CN(C)[C@@H]1C[C@H]2[C@@H](C[C@H]1Nc1cc(F)c(S(=O)(=O)Nc3nccs3)cc1Cl)C2(Cl)Cl` [Example 197, 5-Chloro-4-(((1R,3R,4R,6S)-7,7-dichloro-4-(dimethylamino)bicyclo[4.1.0]heptan-3-yl)amino)-2-fluoro-N-(thiazol-2-yl)benzenesulfonamide formate], for which the values for the IC50 at hNav1.7 [1] and at hNav1.7 [2] were 38 nM and 3.85 nM, respectively.
For `CN(C)[C@H]1C[C@H](F)CC[C@@H]1Nc1cc(F)c(S(=O)(=O)Nc2nccs2)cc1Cl` [Example 193, 5-chloro-4-(((1S,2S,4R)-2-(dimethylamino)-4-fluorocyclohexyl)amino)-2-fluoro-N-(thiazol-2-yl)benzenesulfonamide], in that order: 911 nM and 39.4 nM.
For `Cc1csc(NS(=O)(=O)c2cc(Cl)c(N[C@H]3CCCC[C@@H]3N(C)CCO)cc2F)n1` [Example 111, 5-chloro-2-fluoro-4-(((1S,2S)-2-((2-hydroxyethyl)(methyl)amino)cyclohexyl)amino)-N-(4-methylthiazol-2-yl)benzenesulfonamide], in that order: 678 nM and 23.4 nM.
On to `CN(C)[C@H]1C[C@@H](c2cccc(C(F)(F)F)c2)CC[C@@H]1Nc1cc(F)c(S(=O)(=O)Nc2ccncn2)cc1Br` [Example 227, 5-Bromo-4-(((1S,2S,4S)-2-(dimethylamino)-4-(3-(trifluoromethyl)phenyl)cyclohexyl)amino)-2-fluoro-N-(pyrimidin-4-yl)benzenesulfonamide], for which the IC50 at hNav1.7 [1] was found to be 0.69 nM; on hNav1.7 [2], 1.19 nM.
For the compound `CN(C)[C@H]1CCC(c2ccccc2F)C[C@@H]1Nc1cc(F)c(S(=O)(=O)Nc2nccs2)cc1Cl` (stereo in doubt) [Example 174, 5-chloro-4-(((1S,2S,5S)-2-(dimethylamino)-5-(2-fluorophenyl)cyclohexyl)amino)-2-fluoro-N-(thiazol-2-yl)benzenesulfonamide], the IC50 at hNav1.7 [1] came out at 357 nM; on hNav1.7 [2] it was 50.2 nM.
Regarding `CN(C)[C@H]1CCC(c2cccc(C(F)(F)F)c2)C[C@@H]1Nc1cc(F)c(S(=O)(=O)Nc2ccncn2)cc1Cl` (stereo in doubt) [Example 121, 5-chloro-4-(((1S,2S,5S)-2-(dimethylamino)-5-(3-(trifluoromethyl)phenyl)cyclohexyl)amino)-2-fluoro-N-(pyrimidin-4-yl)benzenesulfonamide], the figures for the IC50 at hNav1.7 [1] and at hNav1.7 [2] were 1170 nM and 121 nM, respectively.
Turning to `N#C[C@@H]1CCCN([C@H]2CCCC[C@@H]2Nc2cc(F)c(S(=O)(=O)Nc3nccs3)cc2Cl)C1` [Example 176, 5-Chloro-4-(((1S,2S)-2-((R)-3-cyanopiperidin-1-yl)cyclohexyl)amino)-2-fluoro-N-(thiazol-2-yl)benzenesulfonamide], the results for the IC50 on hNav1.7 [1] and at hNav1.7 [2] were 491 nM and 8.72 nM, respectively.
In the case of `CCN(C)[C@H]1CCCC[C@@H]1N1CCOc2cc(S(=O)(=O)Nc3nccs3)c(F)cc21` (racemic) [Example 189, 4-((trans)-2-(ethyl(methyl)amino)cyclohexyl)-6-fluoro-N-(thiazol-2-yl)-3,4-dihydro-2H-benzo[b][1,4]oxazine-7-sulfonamide], the IC50 at hNav1.7 [1] is 304 nM; on hNav1.7 [2] it was 23.4 nM.
Take `COc1cc(S(=O)(=O)Nc2ccncn2)c(F)cc1N[C@H]1CC[C@H](c2cccc(C(F)(F)F)c2)C[C@@H]1N(C)C` [Example 241, 4-(((1S,2S,4S)-2-(Dimethylamino)-4-(3-(trifluoromethyl)phenyl)cyclohexyl)amino)-2-fluoro-5-methoxy-N-(pyrimidin-4-yl)benzenesulfonamide formate]: the results for the IC50 at hNav1.7 [1] and at hNav1.7 [2] were 3.73 nM and 1.48 nM, respectively.
For `CN(C)[C@@H]1Cc2ccccc2C[C@H]1Nc1cc(F)c(S(=O)(=O)Nc2nccs2)cc1Cl` [Example 164, 5-Chloro-4-(((2R,3R)-3-(dimethylamino)-1,2,3,4-tetrahydronaphthalen-2-yl)amino)-2-fluoro-N-(thiazol-2-yl)benzenesulfonamide], in that order: 53.4 nM and 7.43 nM.
`CN(C1CNC1)[C@H]1C[C@@H](C(F)(F)F)CC[C@@H]1Nc1cc(F)c(S(=O)(=O)Nc2cccc(F)n2)cc1Cl` [Example 170, 4-(((1S,2S,4S)-2-(azetidin-3-yl(methyl)amino)-4-(trifluoromethyl)cyclohexyl)amino)-5-chloro-2-fluoro-N-(6-fluoropyridin-2-yl)benzenesulfonamide]: the results for the IC50 on hNav1.7 [1] and on hNav1.7 [2] were 2.92 nM and 3.68 nM, respectively.
On the same counts, the results for `N#C[C@H]1CCCN([C@H]2CCCC[C@@H]2Nc2cc(F)c(S(=O)(=O)Nc3nccs3)cc2Cl)C1` [Example 177, 5-chloro-4-(((1S,2S)-2-((S)-3-cyanopiperidin-1-yl)cyclohexyl)amino)-2-fluoro-N-(thiazol-2-yl)benzenesulfonamide] are 60.9 nM and 2.91 nM.
In the case of `CN(C)[C@H]1CC=C(C(F)(F)F)C[C@@H]1Nc1cc(F)c(S(=O)(=O)Nc2nccs2)cc1Cl` [Example 130, 5-chloro-4-(((1S,6S)-6-(dimethylamino)-3-(trifluoromethyl)cyclohex-3-en-1-yl)amino)-2-fluoro-N-(thiazol-2-yl)benzenesulfonamide], the 50% inhibitory concentration (IC50) at hNav1.7 [1] was determined as 75.9 nM; on hNav1.7 [2], 9.92 nM.
For `CN(CC(C)(C)O)[C@H]1CCCC[C@@H]1Nc1cc(F)c(S(=O)(=O)Nc2nccs2)cc1Cl` [Example 116, 5-Chloro-2-fluoro-4-(((1S,2S)-2-((2-hydroxy-2-methylpropyl)(methyl)amino)cyclohexyl)amino)-N-(thiazol-2-yl)benzenesulfonamide formate], the IC50 on hNav1.7 [1] was 307 nM; on hNav1.7 [2] it was 18.2 nM.
Turning to `CN(C)[C@H]1C[C@H](c2cccc(C(F)(F)F)c2)CC[C@@H]1Nc1cc(F)c(S(=O)(=O)Nc2ccon2)cc1Cl` [Example 229, 5-chloro-4-(((1S,2S,4R)-2-(dimethylamino)-4-(3-(trifluoromethyl)phenyl)cyclohexyl)amino)-2-fluoro-N-(isoxazol-3-yl)benzenesulfonamide], the values for the IC50 on hNav1.7 [1] and at hNav1.7 [2] were 55 nM and 8.38 nM, respectively.
For the compound `O=S(=O)(Nc1nccs1)c1cc(Cl)c(N[C@H]2CCCC[C@@H]2N2CCC[C@](F)(CO)C2)cc1F` [Example 212, 5-Chloro-2-fluoro-4-(((1S,2S)-2-((R)-3-fluoro-3-(hydroxymethyl)piperidin-1-yl)cyclohexyl)amino)-N-(thiazol-2-yl)benzenesulfonamide], the 50% inhibitory concentration (IC50) at hNav1.7 [1] stood at 110 nM; at hNav1.7 [2], 6.59 nM.
On to `CN(C)[C@H]1C[C@@H](c2cccc(C3CC3)c2)CC[C@@H]1Nc1cc(F)c(S(=O)(=O)Nc2ccncn2)cc1Cl` [Example 219, 5-chloro-4-(((1S,2S,4S)-4-(3-cyclopropylphenyl)-2-(dimethyamino)cyclohexyl)amino)-2-fluoro-N-(pyrimidin-4-yl)benzenesulfonamide], for which the figures for the IC50 at hNav1.7 [1] and on hNav1.7 [2] were 1.71 nM and 0.942 nM, respectively.
